Reference: patent US20250049931A1, “POLYSARCOSINE-VITAMIN E DERIVATIVES” (POLYPEPTIDE THERAPEUTIC SOLUTIONS, S.L., priority 2021, published 2025)

Columns and labels:
[1] = Skin permeation studies by Franz diffusion cells; format: in vitro ADME, human; conditions: TPGS-Dil and TPSS-Dil micelles 10 mg/mL, 8 h
Experimental: Breast skin samples were obtained from healthy women undergoing plastic surgery after written informed consent (kindly donated by Hospital la Fe, Valencia, Spain). Immediately after excision, the subcutaneous fatty tissue was carefully removed using a scalpel. The skin was cut into 4 cm^2 pieces, wrapped in aluminum foil and stored at −20° C. until use. To reduce inter-individual variability and afford a better comparison of results, skin from only one donor was used in all experiments. Before starting each experiment, the skin was allowed to equilibrate at room temperature (r.t.).
Permeation studies employed the modified Franz diffusion cells (Logan Instruments Corp., EE. UU) with a diffusional area of 0.95 cm^2. […]
Finally, the samples were placed in the optimum cutting temperature (OCT) inclusion medium, and slides of 5 μm were generated via cryostat (version CM1850 UV, Leica, Germany) and samples were analyzed by confocal microscopy.
Images were captured with an inverted DM IRE2 microscope equipped with a λ-blue 40× oil immersion objective and handled with a TCS SP2 system, equipped with an Acoustic Optical Beam Splitter (AOBS). […] Control tissue that follows the same incubation time with MilliQ water was also analyzed to establish the autofluorescence. Dil intensity was quantified five times per sample using Image J software.

[2] = tested on: human fibroblasts; experiment: Cell viability by MTS assay, fibroblasts; format: cell-based; conditions: 72 h, 0.1 to 2.57 μg/mL equivalents of Vitamin E
[3] = tested on: HaCaT cells; experiment: Cell viability by MTS assay, HaCaT; format: cell-based, human; conditions: 72 h, 0.1 to 2.57 μg/mL equivalents of Vitamin E

| Structure (SMILES) | Dil found in the receptor chamber [1] | cytotoxic effect (cell viability by MTS) [2] | cytotoxic effect (cell viability by MTS) [3] |
| --- | --- | --- | --- |
| CCCCCCCCCCCCCCCCCCN1C(=CC=CC2=[N+](CCCCCCCCCCCCCCCCCC)c3ccccc3C2(C)C)C(C)(C)c2ccccc21.[O-][Cl+3]([O-])([O-])[O-] [Dil, 1,1′-dioctadecyl-3,3,3′,3′-tetramethylindocarbocyanine perchlorate] | any Dil was found in the receptor chamber |  |  |
| Cc1c(C)c2c(c(C)c1O)CC[C@@](C)(CCC[C@H](C)CCC[C@H](C)CCCC(C)C)O2 [Vitamin E, α-tocopherol] |  | no cytotoxic effect | no cytotoxic effect |
